Structures can show the parent of a compound that is named as a salt.
What follows are compounds tested against T1, acetylcholine esterase (Mus musculus, UniProt P21836) (assay: biochemical). Details: not given.
T1 construct: using a mouse brain homogenate as the acetylcholine esterase source; from tissue; host or cells: mouse brain homogenate
T1 sequence (P21836 32-614): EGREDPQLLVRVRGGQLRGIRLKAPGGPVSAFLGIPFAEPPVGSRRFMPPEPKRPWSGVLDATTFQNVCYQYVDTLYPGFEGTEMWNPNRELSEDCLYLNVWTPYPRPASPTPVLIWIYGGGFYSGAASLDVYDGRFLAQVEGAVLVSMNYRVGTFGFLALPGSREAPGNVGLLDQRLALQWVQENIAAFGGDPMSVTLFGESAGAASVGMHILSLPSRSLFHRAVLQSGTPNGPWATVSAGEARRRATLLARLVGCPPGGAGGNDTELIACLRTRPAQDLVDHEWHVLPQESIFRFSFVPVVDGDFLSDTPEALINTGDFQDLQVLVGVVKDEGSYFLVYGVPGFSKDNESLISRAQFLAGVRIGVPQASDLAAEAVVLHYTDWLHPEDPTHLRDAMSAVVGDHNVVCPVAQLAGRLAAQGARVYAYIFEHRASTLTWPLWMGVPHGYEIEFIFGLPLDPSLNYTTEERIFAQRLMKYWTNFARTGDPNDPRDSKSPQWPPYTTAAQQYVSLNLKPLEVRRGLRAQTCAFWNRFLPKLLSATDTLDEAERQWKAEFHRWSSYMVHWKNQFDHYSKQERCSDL
With `COc1cccc2c1CN(CCC1CCN(Cc3ccccc3)CC1)C(=O)O2` [Example 1, 3-[2-(1-Benzyl-4-piperidyl)ethyl]-5-methoxy-2H-3,4-dihydro-1,3-benzoxazin-2-one hydrochloride] the IC50 was 0.03 nM. `O=C1Oc2ccccc2CN1CCC1CCN(Cc2ccccc2)CC1` [Example 2, 3-[2-(1-Benzyl-4-piperidyl)ethyl]-2H-3,4-dihydro-1,3-benzoxazin-2-one hydrochloride] gave an IC50 of 4.94 nM. `O=c1oc2ccccc2c(=O)n1CCC1CCN(Cc2ccccc2)CC1` [Example 3, 3-[2-(1-Benzyl-4-piperidyl)ethyl]-2H-3,4-dihydro-1,3-benzoxazine-2,4-dione hydrochloride] gave an IC50 of 8.52 nM. `COc1ccc2c(c1)CN(CCC1CCN(Cc3ccncc3)CC1)C(=O)O2` [Example 4, 3-{2-[1-(4-Pyridylmethyl)-4-piperidyl]ethyl}-6-methoxy-2H-3,4-dihydro-1,3-benzoxazin-2-one dihydrochloride] showed an IC50 of 7.93 nM. `COc1ccc2oc(=O)n(CCC3CCN(CC4CCCC4)CC3)c(=O)c2c1` [Example 6, 3-[2-(1-Cyclopentylmethyl-4-piperidyl)-6-methoxy-ethyl]-2H-3,4-dihydro-1,3-benzoxazine-2,4-dione hydrochloride] gave an IC50 of 4.86 nM. Compound `COc1ccc2oc(=O)n(CCC3CCN(CC4OCCO4)CC3)c(=O)c2c1` [Example 7, 3-{2-[1-(1,3-Dioxolan-2-ylmethyl)-4-piperidyl]ethyl}-6-methoxy-2H-3,4-dihydro-1,3-benzoxazine-2,4-dione hydrochloride] has an IC50 of 124 nM. Compound `Cc1ccc2c(n1)CN(CCC1CCN(Cc3ccccc3)CC1)C(=S)O2` [Example 9, 3-[2-(1-Benzyl-4-piperidyl)ethyl]-2H-3,4-dihydro-6-methylpyrido[2,3-d]-m-oxazine-2-thione hydrochloride] has an IC50 of 8.38 nM. With `O=c1[nH]c2nccnc2c(=O)n1CCC1CCN(Cc2ccccc2)CC1` [Example 10, 3-[2-{4 [(1-Benzyl)piperidyl]}ethyl]pyrazino[2,3-d]-pyprimidine-2,4-dione fumarate] the IC50 was 31.8 nM. Compound `CC1(O)c2nccnc2C(=O)N1CCC1CCN(Cc2ccccc2)CC1` (centres unmarked) [Example 11, 1-[2-{4-[(1-Benzyl)piperidyl]}ethyl]-7-hydroxy-7-methylpiperazino[2,3-c]pyrrolidin-2-one] has an IC50 of 99.6 nM. `C=C1c2nccnc2C(=O)N1CCC1CCN(Cc2ccccc2)CC1` [Example 12, 1-[2-{4-[(1-Benzyl)piperidyl]}ethyl]-7-methylenepiperazino[2,3-c]pyrrolidin-2-one fumarate] gave an IC50 of 1.82 nM. For `O=C1CC(Cc2ccccc2)CN1CCC1CCN(Cc2ccccc2)CC1` (centres unmarked) [Example 14, 1-[2-{(4-[(1-Benzyl)piperidyl]}ethyl]-4-benzylpyrrolidin-2-one hydrochloride], the IC50 was 23.8 nM. For `COc1ccc2c(c1)OC(=O)N(CCC1CCN(Cc3ccccc3)CC1)C2` [Example 24], the IC50 was 1.87 nM. With `COc1cccc2c1OC(=O)N(CCC1CCN(Cc3ccccc3)CC1)C2` [Example 25] the IC50 was 2.74 nM. In the case of `COc1ccc2c(c1)CN(CCC1CCN(Cc3ccccc3)CC1)C(=O)O2` [Example 26], the IC50 is reported as 0.5 nM. `C=C1c2ccccc2C(=O)N1CCC1CCN(Cc2ccccc2)CC1` [Example 27] showed an IC50 of 45.4 nM. For `COc1cc(OC)c2c(c1)OC(=O)N(CCC1CCN(Cc3ccccc3)CC1)C2` [Example 28], the IC50 was 0.38 nM. For `O=C1Oc2c(Cl)cc(Cl)cc2CN1CCC1CCN(Cc2ccncc2)CC1` [Example 30], the IC50 was 29.1 nM. In the case of `O=C1Oc2ccc([N+](=O)[O-])cc2CN1CCC1CCN(Cc2ccccc2)CC1` [Example 31], the IC50 is reported as 0.58 nM. In the case of `O=C1Oc2ccc(Cl)cc2CN1CCC1CCN(Cc2ccccc2)CC1` [Example 32], the IC50 is reported as 1.39 nM. `O=C1Oc2ccc([N+](=O)[O-])cc2CN1CCC1CCN(Cc2ccncc2)CC1` [Example 34] showed an IC50 of 13.8 nM. For `Nc1ccc2c(c1)CN(CCC1CCN(Cc3ccccc3)CC1)C(=O)O2` [Example 35], the IC50 was 1.85 nM. `CC(=O)Nc1ccc2c(c1)CN(CCC1CCN(Cc3ccccc3)CC1)C(=O)O2` [Example 36] gave an IC50 of 1.17 nM. Compound `Cc1ccc2oc(=O)n(CCC3CCN(Cc4ccccc4)CC3)c(=O)c2c1` [Example 37] has an IC50 of 2.97 nM. Work on `COc1ccc2oc(=O)n(CCC3CCN(Cc4ccccc4)CC3)c(=O)c2c1` [Example 38] yielded an IC50 of 0.7 nM. With `O=c1oc2ccc(F)cc2c(=O)n1CCC1CCN(Cc2ccccc2)CC1` [Example 39] the IC50 was 7.79 nM. With `O=c1oc2ccc(F)cc2c(=O)n1CCC1CCN(CC2OCCO2)CC1` [Example 40] the IC50 was 1020 nM. Compound `COc1ccc2c(c1)CN(CCC1CCN(CC3CCCC3)CC1)C(=O)O2` [Example 41] has an IC50 of 4.64 nM. With `COc1ccc2c(c1)CN(CCC1CCN(CC3CCCCC3)CC1)C(=O)O2` [Example 42] the IC50 was 3.92 nM. With `COc1ccc2oc(=O)n(CCC3CCN(CC4CCCCC4)CC3)c(=O)c2c1` [Example 43] the IC50 was 2.96 nM. Work on `COc1ccc2oc(=O)n(CCC3CCN(Cc4ccoc4)CC3)c(=O)c2c1` [Example 46] yielded an IC50 of 11.4 nM. `COc1cccc2c1CN(CCC1CCN(CC3OCCO3)CC1)C(=O)O2` [Example 52] was tested, and the IC50 was 64.9 nM. Compound `COc1ccc2oc(=O)n(CCC3CCN(Cc4cccc(F)c4)CC3)c(=O)c2c1` [Example 53] has an IC50 of 0.18 nM. `COc1ccc2c(c1)CN(CCC1CCN(Cc3cccc(F)c3)CC1)C(=O)O2` [Example 54] gave an IC50 of 0.34 nM. `Cc1ccc2oc(=O)n(CCC3CCN(Cc4ccccc4)CC3)c(=O)c2n1` [Example 64] showed an IC50 of 9.11 nM. `O=C(c1ccccc1)C1CC(=O)N(C2CCN(Cc3ccccc3)CC2)C1` (centres unmarked) [Example 65] gave an IC50 of 34000 nM. Compound `O=C1Nc2ncccc2CN1CCC1CCN(CC2OCCO2)CC1` [Example 66] has an IC50 of 288 nM. In the case of `O=c1[nH]c2ncccc2c(=O)n1CCC1CCN(Cc2ccncc2)CC1` [Example 71], the IC50 is reported as 137 nM. Compound `CCOc1ccccc1C(=O)C1CC(=O)N(CCC2CCN(Cc3ccccc3)CC2)C1` (centres unmarked) [Example 74] has an IC50 of 27.7 nM. In the case of `CCOc1ccc(C(=O)C2CC(=O)N(CCC3CCN(Cc4ccccc4)CC3)C2)cc1` (centres unmarked) [Example 75], the IC50 is reported as 20.8 nM.

Same assay, conditions: read-out: AChE inhibiting activity IC50
`COc1ccc2c(c1)CN(CCC1CCN(CC3OCCO3)CC1)C(=O)O2` [Example 5, 3-{2-[1-(1,3-Dioxolan-2-ylmethyl)}-4-piperidine]ethyl}-6-methoxy-2H-3,4-dihydro-1,3-benzoxazin-2-one hydrochloride] showed an IC50 of 49.5 nM. For `O=C(c1ccccc1)C1CC(=O)N(CCC2CCN(Cc3ccccc3)CC2)C1` (centres unmarked) [Example 13, 1-[2-{4-[(1-Benzyl)piperidyl]}ethyl]-4-benzoylpyrrolidin-2-one hydrochloride], the IC50 was 20.3 nM. Work on `O=C1CCCc2cccnc2N1CCC1CCN(Cc2ccccc2)CC1` [Example 20] yielded an IC50 of 69.1 nM. Work on `COc1ccc2c(c1)CN(CCC1CCN(Cc3ccoc3)CC1)C(=O)O2` [Example 44] yielded an IC50 of 5.04 nM. `O=c1[nH]c2c([N+](=O)[O-])cccc2c(=O)n1CCC1CCN(CC2OCCO2)CC1` [Example 68] gave an IC50 of 220 nM.

From patent publication US5654308A (priority 1990, dated 1997)
